Here are results for 28 compounds from patent US20230234917A1, “ASPARAGINE DERIVATIVES AND METHODS OF USING SAME” (priority 2020, published 2023).

In experiment [1] the target is Full-length WT ClbP (Escherichia coli, UniProt Q0P7K6). The experiment can be described thus: ClbP molecular (purified protein) enzymatic inhibition assay, fluorogenic substrate. It counts as biochemical, E. coli. How it is done:
ClbP Molecular (Purified Protein) Assay
1) Full-length WT ClbP was thawed on ice. A diluted enzyme solution (2 nM) was made by mixing 3.57 μL of enzyme with 20 mL of reaction buffer (50 mM Tris pH 8.0, 200 mM NaCl, 0.02% (w/v) n-dodecyl-b-D-maltoside (DDM)).
2) In a 96 well plate, the diluted protein solution (73.5 μL) was mixed with inhibitor (1.5 μL, of varying concentrations, see below) and preincubated for 15 min at room temperature. Then, reaction buffer (75 μL) containing 10 μM fluorogenic substrate was added to initiate the reaction. After addition of substrate, the final concentrations were 1 nM full-length WT ClbP, 5 μM fluorogenic substrate in 50 mM Tris pH 8.0, 200 mM NaCl, 0.02% (w/v) DDM, with either 0, 0.14, 0.41, 1.2, 3.7, 11, 33, or 100 μM inhibitor. For all conditions, the DMSO carryover was 2% (v/v) at the preincubation stage and 1% in the reaction stage. Compound No. III was always present as a control in each plate, and all compounds were tested in singlicate. In previous assays, the Km of the fluorogenic substrate was determined to be approximately 5 μM.
3) Immediately after addition of substrate to enzyme, the plate was transferred into a spectrophotometer held at room temperature. The fluorescence was recorded every 1.5 min for 15 min. The excitation wavelength was 360 nm (20 nm bandwidth), the emission wavelength was 440 nm (20 nm bandwidth), the optics position was bottom, the gain was extended, the light source was a xenon flash lamp, and the read speed was normal.
4) The linear portion of the fluorescence increase is at least from 0-6 min, so this time regime is used. The rate of fluorescence increase (A.U./min) for each well in an inhibitor series was normalized to the 0 μM inhibitor condition. The normalized activity as a function of inhibitor concentration was then fit to a three parameter IC50 curve in Graphpad Prism.
(§1) “A” indicates an IC50 value less than 100 μM, “B” indicates an IC50 between 100 and 300 μM, “C” indicates an IC50 above 300 μM.

Experiment [2] concerns the target T1, ClbP (Escherichia coli, UniProt Q0P7K6). As to the kind of experiment: ClbP whole cell activity (inhibition) assay, fluorogenic substrate. It is filed as cell-based, E. coli. How it is done: Whole Cell Activity Assay
(§2) 1) E. coli ClbP+ were taken from a frozen stock and streaked onto BHI plates. They were grown aerobically at 37° C. overnight in the incubator.
(§3) 1) A single colony was selected from the plate and inoculated into 30 mL LB in a 50 mL conical vial eight times (240 mL total). The bacteria were grown aerobically overnight (16-20 h) at 37° C. on a nutator with rocking.
1) The saturated overnight culture was centrifuged to create a firm pellet (3,200 g, 10 min, 4° C.). In a biosafety cabinet, the supernatant was removed and then the pellet was resuspended in 30 mL sterile PBS.
2) The bacteria were centrifuged again (3,200 g, 10 min, 4° C.). The supernatant was removed, and the pellet was resuspended in sterile PBS buffer (6 mL) in each of the 8 tubes. This fivefold concentrated bacterial solution was the working solution.
3) The bacterial working solution (192 μL) was mixed with inhibitor (6 μL, final concentration was 300, 100, 33.3, 11.1, 3.7, 1.2, 0.4, or 0 μM). Fluorogenic substrate (2 μL, final concentration 5 μM) was immediately added across the plate to initiate the reaction. As a control, each plate contained Compound No. III in this dose response curve. The bacterial concentration was fivefold concentrated compared to the original saturated overnight culture. Carryover from DMSO was 4% (v/v). All compounds were tested in singlicate.
4) The plate was loaded into a spectrophotometer preheated to 37° C. The fluorescence was recorded every 2 min for 46 min. The excitation wavelength was 360 nm (20 nm bandwidth), the emission wavelength was 460 nm (20 nm bandwidth), the optics position was bottom, the gain was 65, the light source was a tungsten bulb, and the read speed was normal.
5) The linear portion of the fluorescence increase was 10-30 min. The rate of fluorescence increase (A.U./min) for each well in an inhibitor series was normalized to the 0 μM inhibitor condition. The normalized activity as a function of inhibitor concentration was then fit to a three parameter IC50 curve in Graphpad Prism.
as §1

Experiment [3] deals with T1, ClbP. The experiment can be described thus: ClbP cell lysate activity (inhibition) assay, fluorogenic substrate. It counts as biochemical. To be noted: ClbP Lysate Inhibition Assay: IC50, E. coli ClbP+ lysozyme-EDTA lysates, 5 μM fluorogenic substrate, inhibitor 0-300 μM, 37° C., singlicate. How it is done: Cell Lysate Activity Assay
as §2, §3
1) The saturated overnight culture was centrifuged to create a firm pellet (3,200 g, 10 min, 4° C.). The supernatant was removed and then the pellet was resuspended in 30 mL sterile PBS.
2) The bacteria were centrifuged again (3,200 g, 10 min, 4° C.). The supernatant was removed, and the pellet was resuspended in sterile PBS buffer (3 mL) in each 8 tubes to make a tenfold concentrated bacterial solution.
3) A lysozyme-EDTA (LE) solution was made in ddH2O (0.05 mg/mL lysozyme, 0.25 M EDTA).
4) For each of the eight tubes, LE solution (3 mL) was mixed with concentrated bacterial solution (3 mL). This mixture was incubated at 37° C. for 30 min to generate the lysates.
5) The lysates (192 μL) were mixed with inhibitor (6 μL, final concentration was 300, 100, 33.3, 11.1, 3.7, 1.2, 0.4, or 0 μM). Fluorogenic substrate (2 μL, final concentration 5 μM) was immediately added across the plate to initiate the reaction. As a control, each plate contained Compound No. III in this dose response curve. The final concentration of bacterial lysates was fivefold concentrated compared to the original saturated overnight culture. Carryover from DMSO was 4% (v/v). All compounds were tested in singlicate.
6) The plate was loaded into a spectrophotometer preheated to 37° C. The fluorescence was recorded every 2 min for 46 min. The excitation wavelength was 360 nm (20 nm bandwidth), the emission wavelength was 460 nm (20 nm bandwidth), the optics position was bottom, the gain was 65, the light source was a tungsten bulb, and the read speed was normal.
7) The linear portion of the fluorescence increase was 0-20 min. The rate of fluorescence increase (A.U./min) for each well in an inhibitor series was normalized to the 0 μM inhibitor condition. The normalized activity as a function of inhibitor concentration was then fit to a three parameter IC50 curve in Graphpad Prism.
as §1

Broadly, the IC50 is the concentration at which inhibition is half-maximal. Read a low IC50 as higher potency. In the case of `CCCCCCCC(=O)N[C@H](CC(N)=O)C(=O)N(CCc1ccc(O)cc1)C(C)C` [Compound CCLXXVI], the IC50 is under 100 µM in experiment [1], over 300 µM in experiment [2] and under 100 µM in experiment [3].
For `NC(=O)C[C@@H](NC(=O)CCCCCCCCC(F)(F)F)C(=O)NCCc1ccc(O)cc1` [Compound CCCIV], the IC50 in experiment [1], in experiment [2] and in experiment [3] was under 100 µM throughout.
As to `CCCCCCCC(=O)N[C@H](CC(N)=O)C(=O)NCCc1ccc(OC)c(OC)c1` [Compound CCXLIX], the IC50 in experiment [1], in experiment [2] and in experiment [3] was under 100 µM each time.
For `CCCCCCCC(=O)N[C@H](CC(N)=O)C(=O)NCCc1ccccn1` [Compound CCV], the IC50 in experiment [1], in experiment [2] and in experiment [3] was under 100 µM each time.
With `CCCCCCCC(=O)N[C@H](CC(N)=O)c1nnn(C(C)(C)C)n1` [Compound XIX], the IC50 in experiment [1] is 100 to 300 µM; in experiment [2] it was over 300 µM; in experiment [3], over 300 µM.
With `CCCCCCCC(=O)N[C@H](CC(N)=O)C(=O)N[C@@H](C)Cc1ccc(O)cc1` [Compound CCXLIV], the IC50 in experiment [1], in experiment [2] and in experiment [3] was under 100 µM each time.
Consider `CCCCCCCC(=O)N[C@H](CC(N)=O)C(=O)NCCc1ccco1` [Compound CCXXXI], for which the IC50 in experiment [1], in experiment [2] and in experiment [3] was under 100 µM in each case.
For the compound `CCCCCCCC(=O)N[C@H](CC(N)=O)C(=O)NCCc1cncs1` [Compound CCXXXII], the IC50 in experiment [1], in experiment [2] and in experiment [3] was under 100 µM throughout.
Take `NC(=O)C[C@@H](NC(=O)CCCC1CCCC1)C(=O)NCCc1ccccc1` [Compound CCLXIII]: the half-inhibitory concentration (IC50) in experiment [1], in experiment [2] and in experiment [3] was under 100 µM throughout.
For the compound `CCCCCCCC(=O)N[C@H](CC(N)=O)C(=O)NCCc1ccc(C(=O)O)cc1` [Compound CXCVIII], the IC50 in experiment [1] is under 100 µM; in experiment [2], under 100 µM; in experiment [3], 100 to 300 µM.
For `CCCCCCCC(=O)N[C@H](CC(N)=O)C(=O)NCCc1ccc(O)c(O)c1` [Compound CCXXVI], the IC50 in experiment [1], in experiment [2] and in experiment [3] was under 100 µM each time.
In the case of `CCCCCCCC(=O)N[C@H](CC(N)=O)C(=O)NCCCc1ccccc1` [Compound CCXIII], the IC50 in experiment [1], in experiment [2] and in experiment [3] was under 100 µM throughout.
Take `NC(=O)C[C@@H](NC(=O)CCCC1CCCCCC1)C(=O)NCCc1ccc(O)cc1` [Compound CCXLI]: the IC50 in experiment [1], in experiment [2] and in experiment [3] was under 100 µM throughout.
As for `CCCCCCCC(=O)N[C@H](CC(N)=O)C(=O)NCCc1c(F)cc(O)cc1F` [Compound CCCVI], the IC50 in experiment [1], in experiment [2] and in experiment [3] was under 100 µM each time.
As to `CCCCCCCC(=O)N[C@H](CC(N)=O)[C@@H](O)CCCc1ccccc1` [Compound CXCI], the IC50 in experiment [1] was 100 to 300 µM; in experiment [2], under 100 µM; in experiment [3] it was 100 to 300 µM.
On to `CCCCCCCC(=O)N[C@H](CC(N)=O)C(=O)NCCc1ccc(C)cc1` [Compound CXCVI], for which the IC50 in experiment [1], in experiment [2] and in experiment [3] was under 100 µM in each case.
For `CCCCCCCC(=O)N[C@H](CC(N)=O)C(=O)NCCOc1c(F)cccc1F` [Compound CCLV], the IC50 in experiment [1], in experiment [2] and in experiment [3] was under 100 µM throughout.
In the case of `NC(=O)C[C@@H](NC(=O)/C=C/CC1CCCCCC1)C(=O)NCCc1ccccc1` [Compound CCXXXVIII], the IC50 in experiment [1], in experiment [2] and in experiment [3] was under 100 µM in each case.
In the case of `CCCCCCCC(=O)N[C@H](CN[C@@H](C)C(=O)OC)CC(N)=O` [Compound CCLXXXI], the IC50 in experiment [1] is 100 to 300 µM; in experiment [2] it was over 300 µM; in experiment [3], over 300 µM.
Consider `CCCCCCCC(=O)N[C@H](CC(N)=O)C(=O)NC[C@H](C)c1ccccc1` [Compound CCCI], for which the half-inhibitory concentration (IC50) in experiment [1], in experiment [2] and in experiment [3] was under 100 µM each time.
Take `CCCCCCCC(=O)N[C@H](CC(N)=O)C(=O)NCCc1c[nH]cn1` [Compound CCXXVII]: the IC50 in experiment [1], in experiment [2] and in experiment [3] was under 100 µM throughout.
With `NC(=O)C[C@@H](NC(=O)CCCC1CCNCC1)C(=O)NCCc1ccc(O)cc1` [Compound CCLII], the IC50 is 100 to 300 µM in experiment [1], over 300 µM in experiment [2] and over 300 µM in experiment [3].
With `NC(=O)C[C@@H](NC(=O)CC1CCCCC1)C(=O)NCCc1ccccc1` [Compound CCLXXI], the IC50 in experiment [1] was under 100 µM; in experiment [2] it was 100 to 300 µM; in experiment [3], over 300 µM.
The like results for `NC(=O)C[C@@H](NC(=O)CCCCCCC(=O)O)C(=O)NCCc1ccccc1` [Compound CCLXIV] were, in that order, 100 to 300 µM, over 300 µM and over 300 µM.
Take `CCCCCCCC(=O)N[C@H](CC(N)=O)C(=O)NCCN1CCNCC1` [Compound CCXX]: the IC50 in experiment [1], in experiment [2] and in experiment [3] was under 100 µM in each case.
Consider `CCCCCCCC(=O)N[C@H](CC(N)=O)c1nc2ccccc2[nH]1` [Compound CCVII], for which the figures for the IC50 in experiment [1], in experiment [2] and in experiment [3] were under 100 µM, over 300 µM and over 300 µM, respectively.
In the case of `CCCCCCCC(=O)N[C@H](CC(=O)NC)C(=O)NCCc1ccc(O)cc1` [Compound CCXLVI], the IC50 in experiment [1] is under 100 µM; in experiment [2], under 100 µM; in experiment [3] it was 100 to 300 µM.
As to `CCCCCCCC(=O)N[C@H](CC(N)=O)c1nnn(CCc2ccccc2)n1` [Compound XVIII], the half-maximal inhibitory concentration (IC50) in experiment [1] was 100 to 300 µM; in experiment [2] it was over 300 µM; in experiment [3], over 300 µM.
